Measured values: patent US10919896B2, “Preparation and uses of pyrimidinone derivatives” (Cancer Research Technology Limited, priority 2016, dated 2021)

How the values were obtained:
[1] = tested on: Cdc7 (pS53MCM2 levels in HCT116 cells); assay: Cdc7 Cell Pharmacodynamics Assay Method 1: pS53MCM2 levels in HCT116 cells, 6 hours; assay type: cell-based; conditions: for EC50: Homo sapiens, HCT-116, 6 h, read-out: Biomarker Method 1 (pEC50) (converted)
Excerpt: This protocol describes a method to investigate the inhibition of Cdc7 activity of compounds by measuring pS53MCM2 levels in cells after treatment.
• HCT116 cells (wild type P53 positive) • McCoys 5A media (PAA Laboratories Ltd, E15-022) • 10% FCS (Sera Laboratories International Ltd, EU000F Batch:108005) • 100× L-Glutamine (Invitrogen, 25030-024) • D-PBS without CaCl2 and MgCl2 (Invitrogen, ref 14190-094) • Trypsin/EDTA (Invitrogen 25300-054) • 2% BSA in PBS • Cell Extraction Buffer (Invitrogen FNN0011) • Protease inhibitor cocktail (Sigma P-2714) • PMSF 0.3M stock in DMSO (Sigma P7626) • Antibody-rabbit pMCM2 Ser53 (Bethyl #A300-756A) • Antibody-goat MCM2 (Bethyl #A300-122A) • Antibody-goat Anti Rabbit IgG HRP (Perbio Science UK Ltd 31462) • 1×PBS • FACE Wash buffer (0.02% Triton X100 in 1×PBS) • SuperSignal ELISA Pico Chemiluminescent Substrate (Perbio Science UK Ltd 37070) Method • 72 hours prior to the start of the experiment plate 1×10^6 HCT 116 cells in a 150 cm^2 flask in complete McCoys 5A media (+10% FCS+1× L-glutamine). • Plate 20,000 HCT116 cells per well in standard TC treated 96 well plate in 100 μL complete McCoys 5A media. • Allow cells to settle overnight in incubator set at 37° C. and 5% CO2. • Remove intermediate plate from fridge and place at 37° C. overnight to allow to equilibrate. • Cell treatment: cell assay plate 100 μL; daughter to cell transfer volume 3.33 μL; daughter volume 45 μL; mother plate to daughter volume 5 μL. • Once all cells are treated remove the cells to the incubator and incubate for 6 hours. • Dilute the capture antibody (total MCM2#A300-122A) 1 in 250 in the required volume of PBS (5 mL per assay plate) and add 50 μL to each well of a Hybond plate excluding wells 12E to 12H. In these wells add 50 μL PBS. Seal the plate and incubate at room temperature for a minimum of 2 hours. • Defrost aliquot of Invitrogen Cell Extraction Buffer (FNN0011) on ice and supplement with appropriate volume of both Sigma protease inhibitor cocktail (P-2714) and PMSF (final conc 1 mM from a 1 M stock in DMSO). • After the 6 hour cell treatment time tap out the media from the assay plates and place them in the −70° C. freezer for at least 5 minutes. • Remove plates from freezer and add 20 μL of ice cold complete lysis buffer on ice. Incubate cells for 30 minutes at 4° C. • Add 80 μL per well 2% BSA. • Transfer 80 μL from the lysis plate to the same wells in the capture/ELISA plate. Cover with plate seal and incubate plates overnight at 4° C. • Wash plates with PBS, remove any residual remaining liquid and add 50 μL per well of pMCM2 Ser53 antibody (#A300-756A) diluted 1 in 100 in 2% BSA. Cover plate and incubate at room temperature for 2 hours with gentle shaking. • Wash plates with PBS, remove any residual remaining liquid and Incubate with 50 μL goat anti rabbit antibody (1 in 800 dilution in 2% BSA) for 1 hour at room temperature. • Wash plates with PBS, remove any residual remaining liquid and add 50 μL mixed SuperSignal Pico substrate. • Incubate each plate for 5 minutes at room temperature shielding the plates from direct light (with a cover plate). Read plates with the luminescent detection. Method 2A and 2B

Cdc7/ASK = Cdc7/ASK (Homo sapiens, UniProt O00311); assay: Cdc7 Biochemical Assay Method 1: 384 well ELISA, whole protein substrate MCM2, antibody against Phospho MCM2 (S53); parameters: purchased; conditions: 2 μM ATP, read-out: Biochemical Method 1 (pIC50) (converted)
Summary of the method: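 MCM2 protein substrate was coated on nickel-chelate plates, then Cdc7/ASK was added with 2 μM ATP in 50 mM Tris-HCl pH 8.5, 10 mM MgCl2, 1 mM DTT, 4% DMSO, 90 min at room temperature. Phospho-MCM2 (S53) was detected by ELISA with an AP secondary and PNPP absorbance. IC50 was derived from % inhibition versus no-compound and no-enzyme controls.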

Cdc7/Dbf4 = Cdc7/Dbf4 (Homo sapiens, UniProt O00311); assay: Cdc7 Biochemical Assay Method 3: Cdc7/Dbf4 Enzyme TR-FRET Assay measuring pS40MCM2; conditions: 1 μM ATP, read-out: Biochemical Method 3 (pIC50) (converted)
Description: This protocol describes a method for assaying a compounds' ability to inhibit Cdc7 activity by measuring pS40MCM2 levels in a Cdc7/Dbf4 Enzyme TR-FRET Assay.
2.5 nM Cdc7/Dbf4 was incubated with 100 nM of biotin-labelled peptide 35-TDALTS(pS)PGRDLP in the presence of 1 μM ATP at 25° C. for 120 minutes. The phosphorylation of the peptide was detected using TR-FRET. Anti-Mcm2 (pS40) antibody, Terbium anti-rabbit secondary antibody and Streptavidin-Alexa Fluor488 form the detection system.

Chain of Cdc7/ASK (O00311 whole entry): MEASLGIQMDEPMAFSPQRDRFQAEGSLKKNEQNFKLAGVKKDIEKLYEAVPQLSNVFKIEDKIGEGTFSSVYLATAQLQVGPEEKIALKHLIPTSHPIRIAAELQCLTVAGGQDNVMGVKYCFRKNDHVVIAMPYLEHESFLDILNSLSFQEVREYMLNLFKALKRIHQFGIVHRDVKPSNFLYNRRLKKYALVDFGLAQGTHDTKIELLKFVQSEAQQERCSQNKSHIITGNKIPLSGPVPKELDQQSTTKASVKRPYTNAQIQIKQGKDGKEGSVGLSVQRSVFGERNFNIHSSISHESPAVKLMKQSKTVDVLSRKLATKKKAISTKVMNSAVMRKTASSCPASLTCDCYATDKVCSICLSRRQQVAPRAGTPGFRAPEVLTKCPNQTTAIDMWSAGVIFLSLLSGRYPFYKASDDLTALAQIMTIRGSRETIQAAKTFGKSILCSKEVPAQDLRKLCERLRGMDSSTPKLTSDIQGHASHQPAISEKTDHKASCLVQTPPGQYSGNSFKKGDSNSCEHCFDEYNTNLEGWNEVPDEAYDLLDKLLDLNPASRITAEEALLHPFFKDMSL
Chain of Cdc7/ASK (Q9UBU7 whole entry partner): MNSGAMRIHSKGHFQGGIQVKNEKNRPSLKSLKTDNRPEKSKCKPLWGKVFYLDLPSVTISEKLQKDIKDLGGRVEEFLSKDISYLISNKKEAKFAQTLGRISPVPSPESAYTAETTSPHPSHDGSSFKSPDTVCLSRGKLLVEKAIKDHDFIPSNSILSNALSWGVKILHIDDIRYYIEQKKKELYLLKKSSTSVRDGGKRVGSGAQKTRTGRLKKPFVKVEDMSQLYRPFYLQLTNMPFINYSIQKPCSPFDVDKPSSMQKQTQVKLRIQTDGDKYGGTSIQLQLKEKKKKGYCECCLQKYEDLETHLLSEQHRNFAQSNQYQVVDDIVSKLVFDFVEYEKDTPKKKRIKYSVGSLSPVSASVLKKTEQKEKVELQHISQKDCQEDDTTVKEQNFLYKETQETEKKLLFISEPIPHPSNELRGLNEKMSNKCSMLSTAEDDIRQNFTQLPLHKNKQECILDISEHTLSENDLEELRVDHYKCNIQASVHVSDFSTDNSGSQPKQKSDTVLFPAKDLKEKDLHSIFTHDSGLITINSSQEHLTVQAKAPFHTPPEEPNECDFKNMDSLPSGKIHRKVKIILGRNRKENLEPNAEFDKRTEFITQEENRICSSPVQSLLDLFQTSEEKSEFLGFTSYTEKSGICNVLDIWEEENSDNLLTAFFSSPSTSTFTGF
Chain of Cdc7/Dbf4 (O00311 whole entry): as the sequence (O00311 whole entry) above
Chain of Cdc7/Dbf4 (Q9UBU7 whole entry partner): as the sequence (Q9UBU7 whole entry partner) above

CC1CN(c2nc(-c3ccncc3)[nH]c(=O)c2Cl)CCN1C (centres unmarked) [Compound 28]
EC50 [1]: 191 nM | IC50 (Cdc7/ASK): 11.2 nM

CCN1CCN(c2nc(-c3ccncc3)[nH]c(=O)c2Cl)CC1 [Compound 31]
EC50 [1]: 398 nM | IC50 (Cdc7/ASK): 39.8 nM

CC(C)CN1CCC(c2nc(-c3ccncc3)[nH]c(=O)c2Cl)CC1 [Compound 39, 5-chloro-4-(1-isobutyl-4-piperidyl)-2-(4-pyridyl)-1H-pyrimidin-6-one]
IC50 (Cdc7/Dbf4): 5.75 nM | IC50 (Cdc7/ASK): 8.32 nM

O=C(N1CCN(c2nc(-c3ccncc3)[nH]c(=O)c2Cl)CC1)C(F)(F)F [Compound 76]
EC50 [1]: 182 nM | IC50 (Cdc7/ASK): 3.47 nM

C[C@H]1CN(c2nc(-c3ccncc3)[nH]c(=O)c2Cl)CCN1C(=O)C(F)(F)F [Compound 77, 5-chloro-4-[(3S)-3-methyl-4-(2,2,2-trifluoroacetyl)piperazin-1-yl]-2-(4-pyridyl)-1H-pyrimidin-6-one]
EC50 [1]: 93.3 nM | IC50 (Cdc7/ASK): 2.95 nM

CC(=O)N1CCN(c2nc(-c3ccncc3)[nH]c(=O)c2Cl)C[C@@H]1C [Compound 78]
EC50 [1]: 468 nM | IC50 (Cdc7/ASK): 2.29 nM

CN1CCN(c2nc(-c3ccncc3)[nH]c(=O)c2Cl)CC1 [Compound 81]
EC50 [1]: 195 nM | IC50 (Cdc7/ASK): 9.33 nM

CC(C)CN1CCN(c2nc(-c3ccncc3)[nH]c(=O)c2Cl)CC1 [Compound 82]
EC50 [1]: 977 nM | IC50 (Cdc7/ASK): 31.6 nM

O=c1[nH]c(-c2ccncc2)nc(N2CCN(CC3CCCC3)CC2)c1Cl [Compound 84]
EC50 [1]: 589 nM | IC50 (Cdc7/ASK): 23.4 nM

O=c1[nH]c(-c2ccncc2)nc(N2CCN(CC3CCCCC3)CC2)c1Cl [Compound 85]
EC50 [1]: 891 nM | IC50 (Cdc7/ASK): 47.9 nM

CC(C)CN1CCC(c2nc(-c3ccnc(F)c3)[nH]c(=O)c2Cl)CC1 [Compound 87]
EC50 [1]: 148 nM | IC50 (Cdc7/ASK): 3.02 nM

C[C@H]1CN(c2nc(-c3ccncc3)[nH]c(=O)c2Cl)CCN1C [Compound 88]
EC50 [1]: 107 nM | IC50 (Cdc7/ASK): 14.1 nM

O=c1[nH]c(-c2ccncc2)nc(N2CCOCC2)c1Cl [Compound 89, 5-chloro-4-morpholino-2-(4-pyridyl)-1H-pyrimidin-6-one]
EC50 [1]: 74.1 nM | IC50 (Cdc7/ASK): 2.29 nM

O=c1[nH]c(-c2ccncc2)nc(N2CCOC(c3ccccc3)C2)c1Cl (centres unmarked) [Compound 91]
EC50 [1]: 3160 nM | IC50 (Cdc7/ASK): 66.1 nM

O=c1[nH]c(-c2ccncc2)nc(N2CCOC(CCO)C2)c1Cl (centres unmarked) [Compound 94]
EC50 [1]: 759 nM | IC50 (Cdc7/ASK): 6.92 nM

O=c1[nH]c(-c2ccncc2)nc(N2CCNC(C(F)(F)F)C2)c1Cl (centres unmarked) [Compound 101]
EC50 [1]: 44.7 nM | IC50 (Cdc7/ASK): 4.37 nM

CC1CC(C)CN(c2nc(-c3ccncc3)[nH]c(=O)c2Cl)C1 (centres unmarked) [Compound 103]
EC50 [1]: 1150 nM | IC50 (Cdc7/ASK): 29.5 nM

O=c1[nH]c(-c2ccncc2)nc(N2CCC(O)CC2)c1Cl [Compound 104]
EC50 [1]: 155 nM | IC50 (Cdc7/ASK): 3.8 nM

CC1CCCN(c2nc(-c3ccncc3)[nH]c(=O)c2Cl)C1 (centres unmarked) [Compound 105]
EC50 [1]: 427 nM | IC50 (Cdc7/ASK): 14.1 nM

O=c1[nH]c(-c2ccncc2)nc(N2CCC(F)CC2)c1Cl [Compound 106]
EC50 [1]: 70.8 nM | IC50 (Cdc7/ASK): 7.59 nM

O=c1[nH]c(-c2ccncc2)nc(N2CCCC(C(F)(F)F)C2)c1Cl (centres unmarked) [Compound 107]
Biomarker Method 1 (pEC50) [1]: 6.44 | IC50 (Cdc7/ASK): 7.08 nM

O=c1[nH]c(-c2ccncc2)nc(N2CCC(CO)CC2)c1Cl [Compound 109]
EC50 [1]: 151 nM | IC50 (Cdc7/ASK): 3.63 nM

O=c1[nH]c(-c2ccncc2)nc(N2CCN(c3cccc(F)c3)CC2)c1Cl [Compound 111]
EC50 [1]: 759 nM | IC50 (Cdc7/ASK): 16.2 nM

O=C(OCc1ccccc1)N1CCN(c2nc(-c3ccncc3)[nH]c(=O)c2Cl)CC1 [Compound 112]
EC50 [1]: 759 nM | IC50 (Cdc7/ASK): 6.17 nM

O=c1[nH]c(-c2ccncc2)nc(N2CCCCCC2)c1Cl [Compound 114]
EC50 [1]: 1550 nM | IC50 (Cdc7/ASK): 19.1 nM

O=c1[nH]c(-c2ccncc2)nc(N2CCN(c3cccnc3)CC2)c1Cl [Compound 116]
EC50 [1]: 603 nM | IC50 (Cdc7/ASK): 12.6 nM

CC1(C)CN(c2nc(-c3ccncc3)[nH]c(=O)c2Cl)CCO1 [Compound 121]
EC50 [1]: 117 nM | IC50 (Cdc7/ASK): 5.62 nM

CC1CCN(c2nc(-c3ccncc3)[nH]c(=O)c2Cl)CC1 [Compound 122]
EC50 [1]: 417 nM | IC50 (Cdc7/ASK): 6.61 nM

O=c1[nH]c(-c2ccncc2)nc(N2CCCC(CO)C2)c1Cl (centres unmarked) [Compound 123]
EC50 [1]: 224 nM | IC50 (Cdc7/ASK): 9.33 nM

O=c1[nH]c(-c2ccncc2)nc(N2CCN(CCO)CC2)c1Cl [Compound 125]
EC50 [1]: 912 nM | IC50 (Cdc7/ASK): 40.7 nM

O=c1[nH]c(-c2ccncc2)nc(N2CCC(F)(F)CC2)c1Cl [Compound 127]
EC50 [1]: 224 nM | IC50 (Cdc7/ASK): 45.7 nM

O=c1[nH]c(-c2ccncc2)nc(N2CCSCC2)c1Cl [Compound 128]
EC50 [1]: 79.4 nM | IC50 (Cdc7/ASK): 2.57 nM

O=c1[nH]c(-c2ccncc2)nc(N2CCN[C@@H](CO)C2)c1Cl [Compound 129]
EC50 [1]: 871 nM | IC50 (Cdc7/ASK): 2.09 nM

O=c1[nH]c(-c2ccncc2)nc(N2CCCC(F)C2)c1Cl (centres unmarked) [Compound 131]
EC50 [1]: 112 nM | IC50 (Cdc7/ASK): 8.13 nM

O=c1[nH]c(-c2ccncc2)nc(N2CCCC(F)(F)C2)c1Cl [Compound 132]
EC50 [1]: 33.9 nM | IC50 (Cdc7/ASK): 1.95 nM

O=c1[nH]c(-c2ccncc2)nc(N2CC3C(C2)C3(F)F)c1Cl (centres unmarked) [Compound 134]
EC50 [1]: 692 nM | IC50 (Cdc7/ASK): 19.1 nM

O=c1[nH]c(-c2ccncc2)nc(N2CCC(C(F)(F)F)C2)c1Cl (centres unmarked) [Compound 135]
EC50 [1]: 661 nM | IC50 (Cdc7/ASK): 23.4 nM

O=c1[nH]c(-c2ccncc2)nc(N2CCCN(CCO)CC2)c1Cl [Compound 136]
EC50 [1]: 2090 nM | IC50 (Cdc7/ASK): 20 nM

O=c1[nH]c(-c2ccncc2)nc(N2C[C@H]3C[C@@H]2CN3)c1Cl [Compound 161]
IC50 (Cdc7/Dbf4): 1.74 nM | IC50 (Cdc7/ASK): 31.6 nM

O=c1[nH]c(-c2ccncc2)nc(N2CCNC(c3ccc(Cl)cc3)C2)c1Cl (centres unmarked) [Compound 168]
IC50 (Cdc7/Dbf4): 1.91 nM | IC50 (Cdc7/ASK): 9.33 nM
